Source: US20070276011A1, “Plasminogen Activator Inhibitor-1 Inhibitor” (priority 2003, published 2007)

Target: recombinant human PAI-1 (Homo sapiens, UniProt P05121)
Assay: PAI-1 inhibitory activity, Test Method A (tPA fluorogenic substrate, Tris buffer pH8.0, 37 C)
Type: biochemical
Details: 25 μM test compound; Test Method A

Sequence of recombinant human PAI-1 (P05121 24-402): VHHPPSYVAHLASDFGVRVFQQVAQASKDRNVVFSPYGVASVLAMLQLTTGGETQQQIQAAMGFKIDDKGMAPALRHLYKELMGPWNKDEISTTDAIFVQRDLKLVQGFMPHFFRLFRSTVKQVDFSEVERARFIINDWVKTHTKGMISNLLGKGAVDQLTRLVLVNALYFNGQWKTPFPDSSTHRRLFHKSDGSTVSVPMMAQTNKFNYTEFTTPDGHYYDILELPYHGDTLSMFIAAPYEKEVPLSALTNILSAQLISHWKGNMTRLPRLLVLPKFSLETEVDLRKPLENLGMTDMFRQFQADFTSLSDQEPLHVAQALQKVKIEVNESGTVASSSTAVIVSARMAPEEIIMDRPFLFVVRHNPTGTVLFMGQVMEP

| Inhibitory Ratio at 25 μM (%) | SMILES |
| --- | --- |
| 52% | CCOC(=O)CCC1=NN(c2ccccc2)C(=O)C1=Cc1ccc2c(c1)OCO2 [compound 512, 4-(3,4-Methylenedioxybenzylidene)-1-phenyl-3-[2-(ethoxycarbonyl)ethyl]-2-pyrazolin-5-one] |
| >99% | CC(C)C1=NN(c2ccc(C(=O)O)cc2)C(=O)C1=Cc1ccc(C=Cc2ccccc2)cc1 [compound 536] |
| 78% | COc1ccc(C=Cc2ccccc2)cc1C=C1C(=O)N(c2ccc([N+](=O)[O-])cc2)N=C1C(C)C [compound 532, 4-(2-Methoxy-5-styrylbenzylidene)-1-(4-nitrophenyl)-3-isopropyl-2-pyrazolin-5-one] |
| 64% | CC(C)C1=NN(c2ccc(C(=O)O)cc2)C(=O)C1=Cc1cc(C=Cc2ccccc2)ccc1O [compound 534] |
| 66% | CCOC1=NN(c2ccc([N+](=O)[O-])cc2)C(=O)C1=Cc1cc(C=Cc2ccccc2)ccc1OC [compound 537] |
| >99% | O=C(Nc1ccc(O)c(O)c1)c1cc(C=C2SC(=O)N(Cc3ccc(Cl)cc3Cl)C2=O)ccc1O [compound 398] |
| >99% | COc1ccc(Oc2ccc(C(F)(F)F)cc2NC(=O)c2cc(C=C3SC(=O)N(Cc4cccc(Oc5ccccc5)c4)C3=O)ccc2O)cc1 [compound 421, 5-(4-hydroxy-3-{[2-(4-methoxyphenoxy)-5-(trifluoromethyl)-phenyl]carbamoyl}benzylidene)-3-(3-phenoxybenzyl)thiazolidine-2,4-dione] |
| 51% | COc1ccc(-c2cc(C=C3SC(=O)N(Cc4ccc(Cl)c(Cl)c4)C3=O)ccc2OC)cc1 [compound 448, 5-[4-Methoxy-3-(4-methoxyphenyl)benzylidene]-3-(3,4-dichlorobenzyl)thiazolidine-2,4-dione] |
| >99% | COc1ccc(C=C2SC(=O)N(Cc3ccc(Cl)c(Cl)c3)C2=O)cc1NC(=O)c1ccc(O)c(O)c1 [compound 359, 5-[4-Methoxy-3-(3,4-dihydroxybenzoylamino)benzylidene]-3-(3,4-dichlorobenzyl)thiazolidine-2,4-dione] |
| 74% | COc1ccc(COC(=O)c2cc(C=C3SC(=O)N(Cc4ccc(C(F)(F)F)cc4)C3=O)ccc2O)cc1 [compound 387, 5-[4-hydroxy-3-(4-methoxybenzyloxycarbonyl)benzylidene]-3-[4-(trifluoromethyl)benzyl]thiazolidine-2,4-dione] |
| 82% | CCOC1=NN(c2ccc([N+](=O)[O-])cc2)C(=O)C1=Cc1cc(O)c(O)cc1Br [compound 557, 4-(2-Bromo-4,5-dihydroxybenzylidene)-1-(4-nitrophenyl)-3-ethoxy-2-pyrazolin-5-one] |
| 43% | CCOC(=O)Oc1ccc(C=C2SC(=O)N(Cc3ccc(Cl)cc3Cl)C2=O)cc1OC(=O)OCC [compound 337] |
| >99% | COc1ccc(C)cc1NC(=O)c1cc(C=C2SC(=O)N(Cc3ccc(Cl)c(Cl)c3)C2=O)ccc1O [compound 452, 5-[4-hydroxy-3-(2-methoxy-5-methylphenylcarbamoyl)-benzylidene]-3-(3,4-dichlorobenzyl)thiazolidine-2,4-dione] |
| >99% | CC(C)C1=NN(c2cc(Cl)cc(Cl)c2)C(=O)C1=Cc1cc(Br)ccc1O [compound 526] |
| >99% | COc1cc(C=C2C(=O)N(c3ccc(Cl)c(Cl)c3)N=C2C(C)C)cc(C(=O)O)c1O [compound 559] |
| 84% | O=C(OCc1ccccc1)c1cc(C=C2SC(=O)N(Cc3cc(C(F)(F)F)ccc3C(F)(F)F)C2=O)ccc1O [compound 363, 5-(3-Benzyloxycarbonyl-4-hydroxybenzylidene)-3-[2,5-bis(trifluoromethyl)benzyl]thiazolidine-2,4-dione] |
| >99% | CC(C)C1=NN(c2cc(Cl)cc(Cl)c2)C(=O)C1=Cc1cc(Br)cc(O)c1O [compound 529] |
| >99% | COC(=O)c1cc(C=C2SC(=O)N(Cc3ccc(Cl)c(Cl)c3)C2=O)cc(O)c1O [compound 344] |
| >99% | CC(C)C1=NN(c2ccc(Cl)c(Cl)c2)C(=O)C1=Cc1cc(O)ccc1[N+](=O)[O-] [compound 558] |
| >99% | O=C(Nc1cc(C=C2SC(=O)N(Cc3ccc(Cl)c(Cl)c3)C2=O)ccc1O)c1ccc(OC(F)(F)F)cc1 [compound 365] |
| >99% | Cc1ccc(O)c(NC(=O)c2cc(C=C3SC(=O)N(Cc4ccc(Cl)c(Cl)c4)C3=O)ccc2O)c1 [compound 457] |
| 91% | O=C(OCc1ccccc1)c1cc(C=C2SC(=O)N(Cc3ccc(Cl)c(Cl)c3)C2=O)cc(-c2ccccc2)c1O [compound 426, 5-[3-Phenyl-4-hydroxy-5-(benzyloxycarbonyl)benzylidene]-3-(3,4-dichlorobenzyl)thiazolidine-2,4-dione] |
| 27% | COc1ccc(C(=O)Nc2cc(C=C3SC(=O)N(Cc4ccc(Cl)c(Cl)c4)C3=O)ccc2OC)cc1 [compound 381, 5-[4-methoxy-3-(4-methoxybenzoylamino)benzylidene]-3-(3,4-dichlorobenzyl)thiazolidine-2,4-dione] |
| >99% | O=C1C(=Cc2ccc(O)c(O)c2)SC(=S)N1Cc1ccc(C=Cc2ccccc2)cc1 [compound 306, 5-(3,4-Dihydroxybenzylidene)-3-(4-styrylbenzyl)rhodanine] |
| >99% | O=C(O)c1ccc(NC(=O)c2cc(C=C3SC(=O)N(Cc4ccc(Cl)c(Cl)c4)C3=O)ccc2O)cc1 [compound 419] |
| >99% | O=C(Nc1cc(Cl)ccc1C(=O)O)c1cc(C=C2SC(=O)N(Cc3ccc(Cl)c(Cl)c3)C2=O)ccc1O [compound 458] |
| 86% | CCOC(=O)CCCC1=NN(c2ccc(Cl)cc2)C(=O)C1=Cc1cc(Br)ccc1O [compound 516, 4-(2-Hydroxy-5-bromobenzylidene)-1-(4-chlorophenyl)-3-[3-(ethoxycarbonyl)propyl]-2-pyrazolin-5-one] |
| >99% | O=C(O)c1cc(C=C2SC(=O)N(Cc3ccc(Cl)c(Cl)c3)C2=O)cc(O)c1O [compound 464, 5-(3,4-dihydroxy-5-carboxybenzylidene)-3-(3,4-dichlorobenzyl)-thiazolidine-2,4-dione] |
| >99% | CC(C)C1=NN(c2cc(Cl)cc(Cl)c2)C(=O)C1=Cc1cc(C=Cc2ccccc2)ccc1O [compound 525] |
| >99% | COCC1=NN(c2cc(Cl)cc(Cl)c2)C(=O)C1=Cc1ccccc1O [compound 523] |

| SMILES | Inhibitory Ratio at 25 μM (%) |
| --- | --- |
| COc1cc(C=C2SC(=O)N(Cc3ccc(Cl)c(Cl)c3)C2=O)cc(C(=O)Nc2cc(C(F)(F)F)cc(C(F)(F)F)c2)c1O [compound 438] | >99% |

Same assay, conditions: test compound 25 μM; Test Method A

| Inhibitory Ratio at 25 μM (%) | SMILES |
| --- | --- |
| 62% | CCOC(=O)c1cc(C=C2SC(=O)N(Cc3cc(C(F)(F)F)cc(C(F)(F)F)c3)C2=O)ccc1O [compound 28, 5-(3-Ethoxycarbonyl-4-hydroxybenzylidene)-3-[3,5-bis(trifluoromethyl)-benzyl]thiazolidine-2,4-dione] |
| >99% | O=C1SC(=Cc2cc(O)c(O)c(O)c2)C(=O)N1Cc1cc(Cl)cc(Cl)c1 [compound 54] |
| >99% | O=C1C(=Cc2ccc(O)c(O)c2O)C(C(F)(F)F)=NN1c1cc(Cl)cc(Cl)c1 [compound 150] |
| 54% | CC1=NN(c2ccccc2)C(=O)C1=Cc1ccc(-c2cc(C(=O)O)ccc2Cl)o1 [compound 163] |
| 63% | CC1=NN(c2ccc(Cl)c(Cl)c2)C(=O)C1=Cc1cc(Br)ccc1O [compound 102] |
| 33% | COc1cc(C=C2C(=O)N(c3cccc(Cl)c3)N=C2C)cc(O)c1O [compound 124] |
| >99% | O=C(O)c1ccc(Cl)c(-c2ccc(C=C3C(=O)N(c4cccc(C(F)(F)F)c4)N=C3O)o2)c1 [compound 220] |
| >99% | CC(C)C1=NN(c2ccc(Cl)c(Cl)c2)C(=O)C1=Cc1cc(O)c(O)c(O)c1 [compound 134, 4-(3,4,5-Trihydroxybenzylidene)-1-(3,4-dichlorophenyl)-3-isopropyl-2-pyrazolin-5-one] |
| >99% | O=C(O)c1cccc(N2N=C(c3ccccc3)C(=Cc3ccc(-c4cc(C(F)(F)F)cc(C(F)(F)F)c4)o3)C2=O)c1 [compound 217] |
| 49% | COC(=O)c1cccc(N2N=C(C(C)C)C(=Cc3ccc(Cl)c(Cl)c3)C2=O)c1 [compound 210] |
| >99% | O=C1SC(=Cc2ccc(O)cc2O)C(=O)N1Cc1ccc(Cl)c(Cl)c1 [compound 45] |
| >99% | O=C1C(=Cc2ccc(O)c(O)c2)C(C(F)(F)F)=NN1c1cccc([N+](=O)[O-])c1 [compound 137] |
| >99% | CC(C)C1=NN(c2cc(Cl)cc(Cl)c2)C(=O)C1=Cc1ccc(O)c(O)c1 [compound 107] |
| >99% | O=C1SC(=Cc2cccc(O)c2O)C(=O)N1Cc1cccc(Oc2ccccc2)c1 [compound 16, 5-(2,3-Dihydroxybenzylidene)-3-(3-phenoxybenzyl)thiazolidine-2,4-dione] |
| 86% | COC(=O)c1cccc(N2N=C(C(F)(F)F)C(=Cc3ccc(-c4cc(C(F)(F)F)cc(C(F)(F)F)c4)o3)C2=O)c1 [compound 177, 4-({5-[3,5-Bis(trifluoromethyl)phenyl]furan-2-yl}methylene)-1-(3-methoxycarbonylphenyl)-3-trifluoromethyl-2-pyrazolin-5-one] |
| >99% | O=C1SC(=Cc2ccc(O)c(O)c2)C(=O)N1Cc1cccc(Cl)c1Cl [compound 19] |
| 28% | O=C1C(=Cc2cc(Br)cc(Br)c2O)C(O)=NN1c1ccccc1 [compound 101] |
| 53% | CC(C)C1=NN(c2cccc([N+](=O)[O-])c2)C(=O)C1=Cc1ccc(Br)o1 [compound 200, 4-[(5-Bromofuran-2-yl)methylene]-1-(3-nitrophenyl)-3-isopropyl-2-pyrazolin-5-one] |
| >99% | O=C1SC(=Cc2cc(Br)cc(Br)c2O)C(=O)N1c1ccccc1 [compound 1] |
